Reference: patent US20240343726A1, “PYRROLOPYRIDINE-3- AND 4-CARBOXAMIDE COMPOSITIONS AND METHODS FOR CELLULAR PROLIFERATION” (The Rockefeller University, priority 2021, published 2024)
pIC50: −log10 of the molar value. Read-outs that look alike come from different tables or passages of the source.

Columns and labels:
[1] = test system: adult utricular supporting cells; experiment: EdU proliferation assay in cultured adult utricles; format: cell-based, mice; conditions: 5 days of treatment, control=20
Procedure: was tested in vitro to explore its mechanism of action and its utility in regenerating hair cells of the ear. The effects of the compounds were tested on utricles isolated from mice eight to twelve weeks of age. Internal ears were dissected from mice euthanized with fluothane and placed into ice-cold Hank's balanced salt solution, and cultured as previously described by Gnedeva, K. & Hudspeth [Proc. Natl. Acad Sci. 112, 14066-14071 (2015)]. For proliferation assays, utricles were cultured with 10 μM 5-ethynyl-2′-deoxyuridine (EdU) that was detected with click chemistry.
After 5 days of treatment, the N-benzyl thiazole evoked robust re-entry into the cell cycle of adult utricular supporting cells, yielding hundreds of EdU+daughter supporting cells (control=20 EdU+ supporting cells; the N-benzyl thiazole-treated=250 EdU+supporting cells; p=0.021 by an unpaired, one-tailed 1-test, control n=2, TO1 n=3).

Yap = Yap nuclear translocation in supporting cells of cultured utricles (immunohistochemical analysis); format: cell-based, mice; conditions: 10 μM, 24 hr of treatment, control=0.6
phosphorylation of YAP = experiment: pYAP HTRF Assay (HEK 293A Cells); format: cell-based; conditions: HEK293-A, inhibitory activity of phosphorylation of YAP, read-out: LATS1_ICKA_HEK293A IC50
Procedure: Use 3× dilution scheme in DMSO through column 10, lastly diluting further by 10× into column 11. Add 100% DMSO in serum-free and complete medium in columns 1 and 12 as a positive and negative control, respectively. To achieve a dilution of 1:500, use two 0.8 ml 96-well deep-well plates (ThermoFisher AB0765) pre-filled with the medium as intermediate (1:20) and final dilution plate (1:25). (Transfer row-wise) • Flick the cell plate carefully, three to four times or until all wells are clear of any residual liquid. Dispense 50 μL of the compound in medium into respective wells row-wise, incubate at 37° C. for 30 min • After a 30-minute incubation, flick the cell plate carefully, three to four times or until all wells are clear of any residual liquid. Dilute stock Lysis Buffer #4 (4×) in deionized water, complemented with blocking solution, the stock of which is 100×*. Add 75 μL 1× lysis buffer+blocking reagent mix into each well. Mix plate on a shaker for 30 min at room temperature • Dilute stock solution of total/phospho-YAP Eu cryptate & d2 antibody (each) in the ratio of 1:20 with detection buffer. Mix antibody solutions Eu3+ cryptate and d2 (each for total-Yap and phospho-YAP) in the ratio of 1:1*. Transfer 4 μL of the antibody mixture into two separate small-volume 384-well plates assigned for total-YAP and phospho-YAP. Give a short spin to the plates in a benchtop centrifuge set at 1000 rpm for 30 seconds • Row-wise, homogenize the lysate gently by pipetting it up and down, swirling the tip in the well to help scrape off any adherent cells (avoid bubble formation). Row-wise transfer 16 μL cell lysate into the low-volume 384-well plates with 4 μL total-YAP or phospho-YAP antibody reaction mix for a final volume of 20 μL. Spin down the plates in a benchtop centrifuge set at 1000 rpm for 30 seconds • Seal the plates using a vacuum sealer, incubate overnight at room temperature in the dark on a shaker; read the next day • Use a fluorescence emission read using compatible HTRF® reader—BioTek Synergy NEO. […] Included in Cisbio HTRF YAP total kit (#64YATPEH) & YAP phospho-S127 kit (#64YAPPEH).

LATS1 kinase = LATS1 kinase (Homo sapiens (Human), UniProt O95835); experiment: LATS1 Biochemical HTRF Assay
Procedure: LATS1 Biochemical HTRF Assay
MgCl2 and [1 mM] DTT. 1× Enzymatic buffer diluted from 5× Enzymatic buffer*. Add 0.5 μL of 20× compound in 100% DMSO. […] MgCl2, [1 mM] DTIT and [5 mg/mL] BSA. 5×ERR prepared from 5× Enzymatic buffer with [25 mg/mL] BSA. Mix plate on plate shaker set at 1,350 rpm for 30 seconds, then centrifuge plate at 1,000 rpm for 1 minute. Incubate for 30 minutes at 25° C. on plate shaker set to 500 rpm. […] STK Substrate 1-biotin* then add 2 μL [10 mM] ATP. Mix plate on plate shaker set at 1,350 rpm for 30 seconds, then centrifuge plate at 1,000 rpm for 1 minute. Incubate for 40 minutes at 25° C. on plate shaker set to 500 rpm. […] Streptavidin-XL665 with 1×STK Antibody-Cryptate*. Mix plate on plate shaker set at 1,350 rpm for 30 seconds, then centrifuge plate at 1,000 rpm for 1 minute. Incubate for 60 minutes at 25° C. on plate shaker set to 500 rpm, covered from light.
*(Included in Cisbio KinEASE-STK Si HTRF Kit: 62ST1PEC)

[2] = 2 mM ATP, read-out: LATS1_HTRF_2 mM ATP IC50

Sequence of LATS1 kinase (O95835 589-1130): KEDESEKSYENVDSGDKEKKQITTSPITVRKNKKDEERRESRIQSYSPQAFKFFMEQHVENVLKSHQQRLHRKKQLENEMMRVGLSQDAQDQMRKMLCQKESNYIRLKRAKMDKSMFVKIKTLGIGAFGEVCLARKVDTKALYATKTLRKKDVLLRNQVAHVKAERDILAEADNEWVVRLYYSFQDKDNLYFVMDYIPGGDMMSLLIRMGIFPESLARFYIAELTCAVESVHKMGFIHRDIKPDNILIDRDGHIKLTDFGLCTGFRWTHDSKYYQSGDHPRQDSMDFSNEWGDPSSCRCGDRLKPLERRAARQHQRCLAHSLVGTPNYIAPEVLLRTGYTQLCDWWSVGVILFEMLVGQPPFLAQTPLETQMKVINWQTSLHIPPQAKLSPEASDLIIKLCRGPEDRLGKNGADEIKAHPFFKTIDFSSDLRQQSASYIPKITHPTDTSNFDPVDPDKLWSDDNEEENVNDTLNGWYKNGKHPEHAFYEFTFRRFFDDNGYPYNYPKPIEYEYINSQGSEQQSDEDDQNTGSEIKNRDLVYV

SMILES | EdU+ supporting cells (re-entry into the cell cycle) [1] | Yap nuclear translocation, quantified as a ratio to the constitutively expressed protein Sall2 (Yap) | pIC50 (phosphorylation of YAP) | pIC50 (LATS1 kinase; [2]) | pIC50 (LATS1 kinase)
O=C(/N=c1\sccn1Cc1ccccc1)c1c[nH]c2ncccc12 | 250 | 1.0 | – | – | –
O=C(/N=C1\SCCCN1Cc1ccccc1)c1c[nH]c2ncccc12 [Example 25] | – | – | 7.11 | 8.60 | –
O=C(/N=C1\SCCN1c1ccccc1Cl)c1c[nH]c2ncccc12 [Example 3] | – | – | 8.29 | 9.53 | –
O=C(/N=C1\SCCN1c1ccccc1Cl)c1ccnc2[nH]ccc12 [Example 17] | – | – | 5.83 | 7.09 | –
CC1(C)CS/C(=N\C(=O)c2c[nH]c3ncccc23)N1C1CCCCC1 [Example 12] | – | – | 7.43 | – | 8.96
CCc1ccccc1N1CCS/C1=N\C(=O)c1c[nH]c2ncccc12 [Example 4] | – | – | 6.69 | 8.38 | –
COCCN(C)Cc1cs/c(=N\C(=O)c2c[nH]c3ncccc23)n1-c1ccccc1Cl [Example 68] | – | – | 6.57 | 8.55 | –
